Assay [1] has as its target T1, Alpha-2A adrenergic receptor (Bos taurus, UniProt Q28838).
T1 sequence (Q28838 whole entry): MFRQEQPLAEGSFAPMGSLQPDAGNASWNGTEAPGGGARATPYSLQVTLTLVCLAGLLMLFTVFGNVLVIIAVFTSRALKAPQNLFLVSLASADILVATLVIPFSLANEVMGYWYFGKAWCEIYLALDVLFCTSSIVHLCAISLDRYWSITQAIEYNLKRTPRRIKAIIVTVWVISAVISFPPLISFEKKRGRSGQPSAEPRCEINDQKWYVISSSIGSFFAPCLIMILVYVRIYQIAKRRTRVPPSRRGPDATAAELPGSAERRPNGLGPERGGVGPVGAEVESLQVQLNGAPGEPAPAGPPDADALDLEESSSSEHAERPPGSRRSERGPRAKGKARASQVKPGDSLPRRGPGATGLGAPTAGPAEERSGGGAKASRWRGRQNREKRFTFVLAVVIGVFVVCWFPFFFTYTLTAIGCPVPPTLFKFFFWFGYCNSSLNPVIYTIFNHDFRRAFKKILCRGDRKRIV
The assay can be described thus: Compound was evaluated for inhibition of binding of [3H]MK-91 to Alpha-2 adrenergic receptor in bovine pineal.

Assay [2] has as its target T2, Alpha-2A adrenergic receptor (Sus scrofa, UniProt P18871).
T2 sequence (P18871 whole entry): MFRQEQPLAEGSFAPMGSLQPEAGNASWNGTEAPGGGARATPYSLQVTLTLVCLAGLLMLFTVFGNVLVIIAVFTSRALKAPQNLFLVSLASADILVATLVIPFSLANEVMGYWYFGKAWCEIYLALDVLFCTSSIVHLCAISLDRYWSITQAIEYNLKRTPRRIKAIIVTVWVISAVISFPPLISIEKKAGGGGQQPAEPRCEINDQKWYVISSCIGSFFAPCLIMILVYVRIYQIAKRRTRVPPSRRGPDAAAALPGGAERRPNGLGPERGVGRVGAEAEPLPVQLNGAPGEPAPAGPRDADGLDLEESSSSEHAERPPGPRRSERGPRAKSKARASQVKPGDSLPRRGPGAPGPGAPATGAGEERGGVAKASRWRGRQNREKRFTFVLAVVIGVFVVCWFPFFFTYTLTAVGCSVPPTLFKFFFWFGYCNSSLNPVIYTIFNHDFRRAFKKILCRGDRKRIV

Assay [3] addresses T3, Alpha-1D adrenergic receptor (Rattus norvegicus, UniProt P23944).
T3 sequence (P23944 whole entry): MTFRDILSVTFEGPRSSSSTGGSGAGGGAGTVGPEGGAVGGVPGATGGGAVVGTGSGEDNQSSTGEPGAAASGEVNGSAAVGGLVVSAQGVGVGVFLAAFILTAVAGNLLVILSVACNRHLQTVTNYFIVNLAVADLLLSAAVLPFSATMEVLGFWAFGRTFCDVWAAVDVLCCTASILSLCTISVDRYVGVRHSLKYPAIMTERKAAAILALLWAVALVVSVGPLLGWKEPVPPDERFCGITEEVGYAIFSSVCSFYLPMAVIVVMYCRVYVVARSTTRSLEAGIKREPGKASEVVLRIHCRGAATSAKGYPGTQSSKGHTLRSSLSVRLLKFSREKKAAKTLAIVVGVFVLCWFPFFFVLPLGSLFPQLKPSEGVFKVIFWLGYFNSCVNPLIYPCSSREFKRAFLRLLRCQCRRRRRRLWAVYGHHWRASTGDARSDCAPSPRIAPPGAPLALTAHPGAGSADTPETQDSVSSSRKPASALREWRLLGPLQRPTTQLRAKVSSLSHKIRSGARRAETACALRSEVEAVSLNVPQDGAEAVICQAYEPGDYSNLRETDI
The assay can be described thus: Binding affinity against Alpha-1D adrenergic receptor, from rat clones.

Assay [4] has as its target T4, Alpha-1D adrenergic receptor (Homo sapiens, UniProt P25100).
T4 sequence (P25100 whole entry): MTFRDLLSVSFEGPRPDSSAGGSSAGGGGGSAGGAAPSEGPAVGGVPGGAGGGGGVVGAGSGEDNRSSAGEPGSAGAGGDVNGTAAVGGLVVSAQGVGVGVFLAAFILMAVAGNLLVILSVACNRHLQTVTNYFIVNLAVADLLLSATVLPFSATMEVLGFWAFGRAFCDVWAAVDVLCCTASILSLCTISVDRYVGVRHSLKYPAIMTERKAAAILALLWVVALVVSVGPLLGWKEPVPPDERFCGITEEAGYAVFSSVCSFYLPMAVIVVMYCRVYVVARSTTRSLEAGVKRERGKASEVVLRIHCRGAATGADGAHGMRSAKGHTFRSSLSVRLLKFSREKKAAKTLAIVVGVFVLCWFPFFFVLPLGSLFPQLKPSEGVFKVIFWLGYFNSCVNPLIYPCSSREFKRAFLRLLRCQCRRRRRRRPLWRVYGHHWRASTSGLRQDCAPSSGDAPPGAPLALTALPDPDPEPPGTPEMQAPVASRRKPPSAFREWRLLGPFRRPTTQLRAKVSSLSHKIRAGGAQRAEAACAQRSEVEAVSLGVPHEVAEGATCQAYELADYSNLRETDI
The assay can be described thus: Binding affinity against Alpha-1D adrenergic receptor, from human clones.

In assay [5] the target is T5, Alpha-1B adrenergic receptor (Homo sapiens, UniProt P35368).
T5 sequence (P35368 whole entry): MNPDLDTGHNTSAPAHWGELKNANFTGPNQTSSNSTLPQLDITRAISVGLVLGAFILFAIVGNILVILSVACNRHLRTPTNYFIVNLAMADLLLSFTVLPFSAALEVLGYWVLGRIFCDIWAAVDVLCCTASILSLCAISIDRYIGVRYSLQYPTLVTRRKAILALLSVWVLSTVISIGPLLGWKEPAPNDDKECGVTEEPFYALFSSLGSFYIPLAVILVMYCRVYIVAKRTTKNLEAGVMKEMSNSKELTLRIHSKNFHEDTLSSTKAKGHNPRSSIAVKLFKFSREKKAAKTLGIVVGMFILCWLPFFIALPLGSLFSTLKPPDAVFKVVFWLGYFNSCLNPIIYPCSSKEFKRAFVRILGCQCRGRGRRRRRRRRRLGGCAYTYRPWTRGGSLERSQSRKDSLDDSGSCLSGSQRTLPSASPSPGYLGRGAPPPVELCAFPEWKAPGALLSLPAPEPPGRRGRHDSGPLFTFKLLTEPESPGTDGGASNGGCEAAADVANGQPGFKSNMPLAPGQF
Kind of assay: Binding affinity against Alpha-1B adrenergic receptor from human clone.

Assay [6] has as its target T6, Alpha-2B adrenergic receptor (Homo sapiens, UniProt P18089).
T6 sequence (P18089 whole entry): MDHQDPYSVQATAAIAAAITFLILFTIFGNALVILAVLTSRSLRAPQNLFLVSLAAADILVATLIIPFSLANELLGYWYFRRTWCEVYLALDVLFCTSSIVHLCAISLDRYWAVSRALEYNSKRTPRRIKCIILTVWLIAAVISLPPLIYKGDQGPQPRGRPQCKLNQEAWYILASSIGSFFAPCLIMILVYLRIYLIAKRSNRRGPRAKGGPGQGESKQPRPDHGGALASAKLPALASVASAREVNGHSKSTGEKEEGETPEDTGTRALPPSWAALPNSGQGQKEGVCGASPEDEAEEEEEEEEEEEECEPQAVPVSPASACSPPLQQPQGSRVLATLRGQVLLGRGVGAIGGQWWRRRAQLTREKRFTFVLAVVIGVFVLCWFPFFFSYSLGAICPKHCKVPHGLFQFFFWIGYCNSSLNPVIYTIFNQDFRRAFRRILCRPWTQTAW
Kind of assay: Binding affinity against Alpha-2B adrenergic receptor from human clones.

In assay [7] the target is T7, Alpha-2A adrenergic receptor (Homo sapiens, UniProt P08913).
T7 sequence (P08913 whole entry): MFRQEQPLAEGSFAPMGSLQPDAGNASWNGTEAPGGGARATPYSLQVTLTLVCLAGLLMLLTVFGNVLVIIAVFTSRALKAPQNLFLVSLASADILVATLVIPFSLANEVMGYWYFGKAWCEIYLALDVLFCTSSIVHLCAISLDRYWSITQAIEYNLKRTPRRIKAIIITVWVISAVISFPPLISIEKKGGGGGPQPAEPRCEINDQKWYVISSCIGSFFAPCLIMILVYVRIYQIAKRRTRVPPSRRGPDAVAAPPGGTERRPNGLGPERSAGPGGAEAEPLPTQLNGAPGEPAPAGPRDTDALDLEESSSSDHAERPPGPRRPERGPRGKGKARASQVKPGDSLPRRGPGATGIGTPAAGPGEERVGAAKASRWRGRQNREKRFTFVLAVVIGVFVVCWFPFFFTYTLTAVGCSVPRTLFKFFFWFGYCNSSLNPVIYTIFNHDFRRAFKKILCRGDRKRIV
The assay can be described thus: Binding affinity against Alpha-2A adrenergic receptor, from human clones.

The target of assay [8] is T8, Alpha-2A adrenergic receptor (Rattus norvegicus, UniProt P22909).
T8 sequence (P22909 whole entry): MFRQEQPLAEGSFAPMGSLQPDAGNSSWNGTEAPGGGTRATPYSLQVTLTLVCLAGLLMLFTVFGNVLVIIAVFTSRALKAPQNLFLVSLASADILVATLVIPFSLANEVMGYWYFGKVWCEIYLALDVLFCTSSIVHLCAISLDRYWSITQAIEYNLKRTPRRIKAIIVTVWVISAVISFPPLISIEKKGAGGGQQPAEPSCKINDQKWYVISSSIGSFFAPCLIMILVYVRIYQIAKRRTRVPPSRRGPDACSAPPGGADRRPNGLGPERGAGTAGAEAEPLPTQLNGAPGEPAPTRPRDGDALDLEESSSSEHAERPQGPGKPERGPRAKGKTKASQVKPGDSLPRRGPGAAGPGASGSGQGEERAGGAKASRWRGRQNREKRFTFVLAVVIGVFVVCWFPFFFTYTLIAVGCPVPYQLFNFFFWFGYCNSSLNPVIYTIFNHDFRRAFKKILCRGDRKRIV
The assay can be described thus: The compound was tested for binding affinity against alpha-2D adrenergic receptor, from rat clones.

The target in assay [9] is T9, Alpha-2C adrenergic receptor (Homo sapiens, UniProt P18825).
T9 sequence (P18825 whole entry): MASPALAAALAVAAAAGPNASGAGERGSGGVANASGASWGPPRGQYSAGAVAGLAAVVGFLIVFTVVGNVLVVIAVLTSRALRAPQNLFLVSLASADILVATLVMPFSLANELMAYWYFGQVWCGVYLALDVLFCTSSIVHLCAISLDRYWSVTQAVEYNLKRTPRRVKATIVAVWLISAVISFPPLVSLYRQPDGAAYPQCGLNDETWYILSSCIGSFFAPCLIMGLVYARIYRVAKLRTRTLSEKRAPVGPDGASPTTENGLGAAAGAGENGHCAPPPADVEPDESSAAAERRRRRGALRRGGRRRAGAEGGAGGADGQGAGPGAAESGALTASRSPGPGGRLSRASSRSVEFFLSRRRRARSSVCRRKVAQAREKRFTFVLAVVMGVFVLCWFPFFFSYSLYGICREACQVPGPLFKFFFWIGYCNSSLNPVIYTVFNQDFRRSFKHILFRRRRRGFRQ
The assay can be described thus: Binding affinity against Alpha-2C adrenergic receptor from human clones.

Assay [10] addresses T10, Alpha-1A adrenergic receptor (Bos taurus, UniProt P18130).
T10 sequence (P18130 whole entry): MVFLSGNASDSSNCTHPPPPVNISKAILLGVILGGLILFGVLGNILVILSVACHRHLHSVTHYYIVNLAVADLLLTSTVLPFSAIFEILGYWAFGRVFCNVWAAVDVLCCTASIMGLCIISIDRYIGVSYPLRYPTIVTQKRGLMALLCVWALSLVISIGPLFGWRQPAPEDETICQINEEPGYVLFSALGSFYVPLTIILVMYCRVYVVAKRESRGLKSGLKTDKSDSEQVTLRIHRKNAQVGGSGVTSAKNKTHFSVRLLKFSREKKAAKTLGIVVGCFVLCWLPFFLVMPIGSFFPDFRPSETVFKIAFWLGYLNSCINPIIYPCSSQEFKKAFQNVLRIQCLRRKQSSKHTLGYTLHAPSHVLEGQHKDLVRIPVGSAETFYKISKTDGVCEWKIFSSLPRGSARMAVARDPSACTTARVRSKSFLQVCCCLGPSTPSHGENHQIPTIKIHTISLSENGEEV
The assay can be described thus: Binding affinity against Alpha-1A adrenergic receptor from bovine clone.

What is called Ki is a dissociation constant, usually derived from enzyme kinetics or from competition with a known ligand. A lower Ki goes with higher affinity.

In the case of `COc1cc2nc(N3CCN(C(=O)c4ccco4)CC3)nc(N)c2cc1OC` [PRAZOSIN], the results for the Ki in assay [1] and in assay [2] were 106 nM and 4100 nM, respectively.
`COC(=O)[C@H]1[C@H]2C[C@H]3c4[nH]c5ccccc5c4CCN3C[C@H]2CC[C@@H]1O` [RAUWOLSCINE] came in with an inhibition constant Ki in [3] of 35 nM.
For the compound `COc1cc2nc(N(C)CCCNC(=O)C3CCCO3)nc(N)c2cc1OC` (stereo unspecified) [ALFUZOSIN], the Ki in assay [4] is 3.6 nM; in [3] it was 3.5 nM; in [5], 2.8 nM.
With `CC(C)=CCOc1ccc(Cl)c2c1CCN(C)CC2`, the Ki in assay [6] stood at 142 nM; in assay [7], 114 nM; in assay [8], 313 nM; in assay [9], 64 nM.
For the compound `COc1cc2nc(N3CCN(C(=O)C4CCCO4)CC3)nc(N)c2cc1OC` (stereo unspecified) [TERAZOSIN], the Ki in assay [4] worked out at 3.5 nM; in assay [3] it was 35 nM; in assay [7], 3700 nM; in assay [10], 26 nM.
Take `COc1cc2c(cc1OC)CN(c1cc(N)c3cc(OC)c(OC)cc3n1)CC2` [ABANOQUIL]: the Ki in [3] and in assay [10] was 0.03 nM each time.
